Measured values as given in patent US11339193B2, “CDP protein secretion inhibitors” (KEZAR LIFE SCIENCES, priority 2018, dated 2022).
Numbered stars: 1 amine (or outer) side, 2 acyl side, 3 side chain; on linkers, the order of the positions; unused ones are H or OH. Square brackets hold non-standard residues; d marks the D form. Peptide text beside a SMILES is read from it. Butanoyl(2R-oxy,4-CN) = N#CCC[C@@H](O)C(=O)O; X22 = CCCC[C@@H](C)C[C@H](N[*:1])C(=O)[*:2]; Abu(4,4,4-F3) = N[C@@H](CC(F)(F)F)C(=O)O; Ala(cPent) = N[C@@H](CC1CCCC1)C(=O)O; NMeCha = CN[C@@H](CC1CCCCC1)C(=O)O; NMeF = CN[C@@H](Cc1ccccc1)C(=O)O; tBuAla = CC(C)(C)C[C@H](N)C(=O)O; NMeL = CN[C@@H](CC(C)C)C(=O)O; NMeA = CN[C@@H](C)C(=O)O; dLac = C[C@@H](O)C(=O)O; Abu = CC[C@H](N)C(=O)O

Experiments:
Assay type in all cases: cell-based
[1] = test system: PD1-ss+10aa/Gaussia Luciferase; test: Dox induced PD1-ss-Gluc assay; conditions: Flp-In 293 T-REx cells, doxycycline, 24 hours; read-out: PD1ss Gluc IC50
Description: Dox Induced PD1-ss-Gluc Assay
Flp-In 293 T-REx™ cells were transfected with pcDNA™5/FRT/TO plasmid inserted with cDNA encoding Gaussia Luciferase fused to the 3′ end of cDNA encoding PD1 signal sequence plus 10 amino acids (N-[…]-C) (SEQ ID NO:3). Transfected cells were selected for resistance to the selectable markers Hygromycin and Blasticidin to create a stable cell line that contained the PD1-ss+10aa/Gaussia Luciferase cDNA insert whose expression was regulated under the T-REx™ system. The day before assay, cells were trypsinized and plated in 384-well tissue culture plates. The next day, compound dilutions in DMSO/media containing doxycycline were added to the wells and incubated at 37° C., 5% CO2.

[2] = test system: TNFα-FL/Gaussia Luciferase; test: Dox induced TNFα-FL-Gluc assay; conditions: Flp-In 293 T-REx cells, doxycycline, 24 hours; read-out: TNFa FL Gluc IC50
Description: Dox Induced TNFα-FL-Gluc Assay
Flp-In 293 T-REx™ cells were transfected with pcDNA™5/FRT/TO plasmid inserted with cDNA encoding Gaussia Luciferase fused to the 3′ end of cDNA encoding full length TNFα (amino acids 1-233). Transfected cells were selected for resistance to the selectable markers Hygromycin and Blasticidin to create a stable cell line that contained the TNFα-FL/Gaussia Luciferase cDNA insert whose expression was regulated under the T-REx™ system. The day before assay, cells were trypsinized and plated in 384-well tissue culture plates. The next day, compound dilutions in DMSO/media containing doxycycline were added to the wells and incubated at 37° C., 5% CO2.

[3] = test system: NCI-H929 multiple myeloma cell line; test: H929 assay (cell viability, Celltiter-Glo); conditions: Homo sapiens, NCI-H929; 48 hours, cell viability; read-out: H929 EC50
Method: The human multiple myeloma cell line NCI-H929 was cultured in Advanced RPMI 1640 media (Gibco@) supplemented with 6% fetal bovine serum, 2 mM Glutamine, and 1× Penicillin/Streptomycin. On the day of assay, cells were resuspended in RPMI 1640 media supplemented with 10% fetal bovine serum, 2 mM Glutamine, and 1× Penicillin/Streptmycin and plated in 384-well tissue culture plates and treated with compound dilutions in DMSO/media. Plates were incubated at 37° C., 5% CO2 for 48 hours. After 48 hours, Celltiter-Glo@ (Promega) was added to each well and luciferase signal was quantified using Tecan Infinite M1000 Pro for cell viability determination.

Compound	IC50 [1]	IC50 [2]	EC50 [3]
CCCC[C@@H](C)C[C@@H]1NC(=O)[C@H](CC2CCCCC2)N(C)C(=O)[C@H](CC(C)C)NC(=O)[C@H](CC(C)C)N(C)C(=O)[C@H]([C@@H](C)CC)NC(=O)[C@@H](CCC#N)OC(=O)[C@H](C)N(C)C1=O [C-61] (cyclo(I[NMeL]L[NMeCha][X22][NMeA][Butanoyl(2R-oxy,4-CN)]))	392 nM	1890 nM	4560 nM
CCCC[C@@H](C)C[C@@H]1NC(=O)[C@H](Cc2ccccc2)N(C)C(=O)[C@H](CC(C)C)NC(=O)[C@H](CC(C)C)N(C)C(=O)[C@H](CC(C)C)NC(=O)[C@@H](C)OC(=O)[C@H](C)N(C)C1=O [C-08] (HELM PEPTIDE1{L.[meF].[CCCC[C@@H](C)C[C@H](N[*:1])C(=O)[*:2]].[meA].[C[C@@H](O[*:1])C(=O)[*:2]].L.[meL]}$PEPTIDE1,PEPTIDE1,1:R1-7:R2$$$V2.0)	360 nM	526 nM	4460 nM
CCCC[C@@H](C)C[C@@H]1NC(=O)[C@H](Cc2ccccc2)N(C)C(=O)[C@H](CC)NC(=O)[C@H](CC(C)C)N(C)C(=O)[C@H](C[C@H](C)CCCC)NC(=O)[C@@H](C)OC(=O)[C@H](C)N(C)C1=O [C-05] (cyclo([Abu][NMeF][X22][NMeA][dLac][X22][NMeL]))	75 nM	115 nM	1190 nM
CCCC[C@@H](C)C[C@@H]1NC(=O)[C@H](Cc2ccccc2)N(C)C(=O)[C@H](CC(C)C)NC(=O)[C@H](CC(C)C)N(C)C(=O)[C@H](CC)NC(=O)[C@@H](C)OC(=O)[C@H](C)N(C)C1=O [C-06] (HELM PEPTIDE1{[Abu].[meL].L.[meF].[CCCC[C@@H](C)C[C@H](N[*:1])C(=O)[*:2]].[meA].[C[C@@H](O[*:1])C(=O)[*:2]]}$PEPTIDE1,PEPTIDE1,1:R1-7:R2$$$V2.0)	–	–	6710 nM

Further lines, results first:

IC50 [1]	IC50 [2]	EC50 [3]	Compound
751 nM	5730 nM	–	CCCC[C@@H](C)C[C@@H]1NC(=O)[C@H](CC2CCCCC2)N(C)C(=O)[C@H](CC(C)C)NC(=O)[C@H](CC(C)C)N(C)C(=O)[C@H](CC(C)(C)C)NC(=O)C(CCC#N)OC(=O)[C@H](C)N(C)C1=O (stereo in doubt) [C-52]
59 nM	92 nM	1010 nM	CCCC[C@@H](C)C[C@@H]1NC(=O)[C@@H](CCC#N)OC(=O)[C@H](C)N(C)C(=O)[C@H](CC(F)(F)F)NC(=O)[C@H](Cc2ccccc2)N(C)C(=O)[C@H](CC(C)C)NC(=O)[C@H](CC(C)C)N(C)C1=O [C-26] (cyclo(L[NMeF][Abu(4,4,4-F3)][NMeA][Butanoyl(2R-oxy,4-CN)][X22][NMeL]))
2140 nM	–	–	CCCC[C@@H](C)C[C@@H]1NC(=O)[C@H](CC2CCCCC2)N(C)C(=O)[C@H](CC2CCCC2)NC(=O)[C@H](CC(C)C)N(C)C(=O)[C@H](CC(C)C)NC(=O)[C@@H](CCC#N)OC(=O)[C@H](C)N(C)C1=O [C-54] (cyclo([Ala(cPent)][NMeCha][X22][NMeA][Butanoyl(2R-oxy,4-CN)]L[NMeL]))
3050 nM	–	–	CCCC[C@@H](C)C[C@@H]1NC(=O)[C@H](CC2CCCCC2)N(C)C(=O)[C@H](CC(C)(C)C)NC(=O)[C@H](CC(C)C)N(C)C(=O)[C@H](CC(C)C)NC(=O)[C@@H](CCC#N)OC(=O)[C@H](C)N(C)C1=O [C-63] (cyclo(L[NMeL][tBuAla][NMeCha][X22][NMeA][Butanoyl(2R-oxy,4-CN)]))
1060 nM	–	11200 nM	CC(C)C[C@@H]1NC(=O)[C@H](Cc2nc(C(C)(C)C)cs2)N(C)C(=O)[C@H](CC(C)C)NC(=O)[C@H](CC(C)C)N(C)C(=O)[C@H](CC(C)C)NC(=O)[C@@H](CCC#N)OC(=O)[C@H](C)N(C)C1=O [C-68] (HELM PEPTIDE1{L.[meA].[N#CCC[C@@H](O[*:1])C(=O)[*:2]].L.[meL].L.[CN([C@@H](Cc1nc(C(C)(C)C)cs1)C(=O)[*:2])[*:1]]}$PEPTIDE1,PEPTIDE1,1:R1-7:R2$$$V2.0)
